Holding throughout (type): ADME, organism-based
The test system of data set [1] is Homo sapiens. The experiment in a line: (§1) Evaluation of pharmacokinetic parameters for Zafirlukast following single oral administration to healthy boys and girls. Details: dose 20 mg, route oral. The conditions noted are these: in vivo, po, dosed compound id 45, dosed compound name ZAFIRLUKAST, regimen Single dose, tissue Plasma; for CL/F / Tmax: dose 20 mg.
Data set [2] in a line: as §1. The conditions noted are these: both, human, in vivo, dose 20 mg, dosed compound id 45, dosed compound name ZAFIRLUKAST, regimen Single dose, route oral, tissue Plasma. On the set-up: dose 20 mg, route oral.
The subject of data set [3] is Homo sapiens. Kind of data set: (§2) Evaluation of pharmacokinetic parameters for Zafirlukast following oral administration of Zafirlukast tablets in subjects of varying health status. The conditions noted are these: in vivo, po, dosed compound id 45, dosed compound name ZAFIRLUKAST, gender male and female, tissue Plasma.
Data set [4] can be described thus: as §2. The following applies: human, dosed compound id 45, dosed compound name ZAFIRLUKAST, tissue Plasma.

SMILES strings stand for the structures. “And” between values parts separate entries of the source, which are not always exact repeats. Identical values can stand only once.

For orientation: CL/F means the apparent clearance, not corrected for the fraction that reaches the circulation. What is called Tmax is the time at which the peak concentration occurs. One may read the AUC as concentration integrated over time. Low readings indicate less exposure, high ones more exposure. In general, Cmax refers to the maximum level reached in the sampled fluid or tissue. In general, half-life refers to the time in which the quantity being followed falls by half. On to `COc1cc(C(=O)NS(=O)(=O)c2ccccc2C)ccc1Cc1cn(C)c2ccc(NC(=O)OC3CCCC3)cc12` [ZAFIRLUKAST], for which the CL/F in data set [1] (gender male and female) was 9.2 L/h and 11.4 L/h; in data set [1] (gender male) it was 19.4 L/h. The Tmax turned out to be 2.5 h in data set [1] (gender male and female); 2 h in data set [1] (gender male); 2.1 h in data set [2] (gender male and female); 3 h in data set [4] (in vivo). The AUC is 2458 ng·h/mL and 2027 ng·h/mL in data set [1] (gender male and female); 1137 ng·h/mL in data set [1] (gender male). In addition, the peak concentration (Cmax) in data set [1] (gender male and female) is 756 ng/mL and 601 ng/mL; in data set [1] (gender male), 326 ng/mL. In addition, the half-life in data set [2] is 13.3 h; in data set [4] (in vivo, gender male and female), 10 h. Further, in data set [3], the t1/2 was 8 h and 16 h and 10 h. Also, in data set [4] (read-out: Protein binding), the fraction unbound came out at 0.01. Moreover, in data set [4] (in vivo, read-out: Vss/F), the Vd/F is 70 L.

The record behind these values is ChEMBL document CHEMBL3832087, “DailyMed|setid=a60f39f6-d590-4b00-8751-7f12b7ec5385 | ZAFIRLUKAST- zafirlukast tablet, film coated|American Health Packaging”.
